Experiments:
Type in all cases: cell-based
[1] = molecular target: T1, human cloned CHRM5 receptor (Homo sapiens, UniProt P08912); assay: CHRM5 Ca++ Flux Assay (M5_CHO cells, agonist mode); settings: for Emax: Percent Activity (PA) measured to EC100 of Carbachol, read-out: M5 FDSS PA %; for EC50: agonist mode, geometric mean if tested more than once, read-out: M5 FDSS EC50
T1 construct: expressed in transfected cells; host or cells: CHO (M5_CHO)
T1 sequence (P08912 1-532): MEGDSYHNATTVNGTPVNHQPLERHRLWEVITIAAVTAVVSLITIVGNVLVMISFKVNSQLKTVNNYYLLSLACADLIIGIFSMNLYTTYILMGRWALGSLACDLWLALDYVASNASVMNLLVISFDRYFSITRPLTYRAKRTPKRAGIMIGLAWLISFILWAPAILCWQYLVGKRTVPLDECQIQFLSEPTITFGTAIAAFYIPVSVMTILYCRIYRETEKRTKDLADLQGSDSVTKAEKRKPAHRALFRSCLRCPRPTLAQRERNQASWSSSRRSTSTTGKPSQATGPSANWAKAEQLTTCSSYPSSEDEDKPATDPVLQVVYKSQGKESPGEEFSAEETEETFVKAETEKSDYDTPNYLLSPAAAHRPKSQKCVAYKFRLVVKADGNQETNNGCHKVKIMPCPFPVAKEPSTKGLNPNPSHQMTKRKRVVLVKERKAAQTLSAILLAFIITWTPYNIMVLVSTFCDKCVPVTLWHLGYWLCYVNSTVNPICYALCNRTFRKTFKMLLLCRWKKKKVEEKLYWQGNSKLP
Outline: (§1)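 Agonist-mode calcium mobilisation: compounds, 11 concentrations in triplicate, applied to stable M3_CHO or M5_CHO cells loaded with Ca++ dye, fluorescence followed 3 min. Efficacy expressed against carbachol EC100; EC curves by four-parameter nonlinear regression, geometric mean across independent runs.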

[2] = molecular target: T2, human cloned CHRM3 receptor (Homo sapiens, UniProt P20309); assay: CHRM3 Ca++ Flux Assay (M3_CHO cells, agonist mode); settings: for Emax: Percent Activity (PA) measured to EC100 of Carbachol, read-out: M3 FDSS PA %; for EC50: agonist mode, geometric mean if tested more than once, read-out: M3 FDSS EC50
T2 construct: expressed in transfected cells; host or cells: CHO-K1 (M3_CHO)
Outline: as §1

[3] = molecular target: T3, Cloned human M1 receptor (CHRM1) (Homo sapiens, UniProt P11229); assay: CHRM1 Ca++ Flux Assay (HEK293 M1 cells, agonist mode); settings: for Emax: Percent Activity (PA), read-out: M1 FDSS PA %; for EC50: geometric mean if tested more than once, read-out: M1 FDSS EC50
T3 construct: expressed in transfected cells; host or cells: HEK293
T3 sequence (P11229 1-460): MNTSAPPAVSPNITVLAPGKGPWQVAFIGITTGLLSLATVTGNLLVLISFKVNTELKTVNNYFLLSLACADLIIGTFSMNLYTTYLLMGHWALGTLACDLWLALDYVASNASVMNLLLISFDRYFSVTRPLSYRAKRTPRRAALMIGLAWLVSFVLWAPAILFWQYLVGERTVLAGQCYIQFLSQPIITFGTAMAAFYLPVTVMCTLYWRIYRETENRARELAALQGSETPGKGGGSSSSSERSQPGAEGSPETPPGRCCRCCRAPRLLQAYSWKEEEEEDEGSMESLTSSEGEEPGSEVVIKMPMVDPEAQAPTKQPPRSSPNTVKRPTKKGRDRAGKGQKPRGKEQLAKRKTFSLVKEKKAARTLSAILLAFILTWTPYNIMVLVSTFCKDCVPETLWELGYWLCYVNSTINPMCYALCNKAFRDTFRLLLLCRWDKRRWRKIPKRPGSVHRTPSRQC
Outline: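 In agonist mode, compound-induced intracellular Ca++ mobilization was recorded for 3 min by fluorescent imager. The cells were HEK293 stably expressing cloned human CHRM1, in Ca/Mg-free HBSS with 20 mM HEPES. Triplicate 11-point dose-responses were fitted by four-parameter regression and normalized to the carbachol EC100 response.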

T2 sequence (P20309 whole entry): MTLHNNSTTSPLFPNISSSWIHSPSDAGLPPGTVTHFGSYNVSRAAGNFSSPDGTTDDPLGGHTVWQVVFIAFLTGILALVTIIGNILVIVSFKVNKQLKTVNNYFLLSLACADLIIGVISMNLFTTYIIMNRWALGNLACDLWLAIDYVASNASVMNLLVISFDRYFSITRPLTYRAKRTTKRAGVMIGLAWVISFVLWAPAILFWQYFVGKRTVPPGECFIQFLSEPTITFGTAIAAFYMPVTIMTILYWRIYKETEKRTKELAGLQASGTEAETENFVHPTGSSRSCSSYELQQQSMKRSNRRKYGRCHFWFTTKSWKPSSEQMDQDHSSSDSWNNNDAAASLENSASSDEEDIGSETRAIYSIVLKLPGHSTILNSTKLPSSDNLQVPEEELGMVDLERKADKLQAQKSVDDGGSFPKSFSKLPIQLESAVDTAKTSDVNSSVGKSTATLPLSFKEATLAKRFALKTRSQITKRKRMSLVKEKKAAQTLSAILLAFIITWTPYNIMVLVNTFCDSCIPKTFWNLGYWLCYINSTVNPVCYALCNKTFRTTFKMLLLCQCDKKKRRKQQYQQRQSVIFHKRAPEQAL

Compound | Emax [1] [%] | EC50 [1] [µM] | Emax [2] [%] | EC50 [2] [µM] | Emax [3] [%] | EC50 [3] [nM]
c1ccc(C2CCN([C@@H]3COC4(C3)CN(c3nnco3)C4)CC2)c(C2CCOCC2)c1 [Example 3C, (S)-2-(1,3,4-oxadiazol-2-yl)-7-(4-(2-(tetrahydro-2H-pyran-4-yl)phenyl)piperidin-1-yl)-5-oxa-2-azaspiro[3.4]octane] | 0 | > 25 | 0 | > 25 | 78 | 3890
Fc1ccc(C2CCOCC2)c(C2CCN([C@@H]3COC4(C3)CN(c3nnco3)C4)CC2)c1 [Example 3D, (S)-7-(4-(5-fluoro-2-(tetrahydro-2H-pyran-4-yl)phenyl)piperidin-1-yl)-2-(1,3,4-oxadiazol-2-yl)-5-oxa-2-azaspiro[3.4]octane] | 0 | > 25 | 0 | > 25 | 75 | 1410
c1ccc(C2CCN([C@@H]3COC4(C3)CN(c3nnco3)C4)CC2)c(CC2CCOCC2)c1 [Example 3G, (S)-2-(1,3,4-oxadiazol-2-yl)-7-(4-(2-((tetrahydro-2H-pyran-4-yl)methyl)phenyl)piperidin-1-yl)-5-oxa-2-azaspiro[3.4]octane] | 0 | > 25 | 0 | > 25 | 44 | 7240
Fc1ccc(OC2COC2)c(C2CCN([C@@H]3COC4(C3)CN(c3ncco3)C4)CC2)c1 [Example 4A, (S)-7-(4-(5-fluoro-2-(oxetan-3-yloxy)phenyl)piperidin-1-yl)-2-(oxazol-2-yl)-5-oxa-2-azaspiro[3.4]octane] | 0 | > 25 | 0 | > 25 | 84 | 234
Fc1ccc(OC[C@H]2COCCO2)c(C2CCN([C@@H]3COC4(C3)CN(c3ncco3)C4)CC2)c1 [Example 4B, (S)-7-(4-(2-(((R)-1,4-dioxan-2-yl)methoxy)-5-fluorophenyl)piperidin-1-yl)-2-(oxazol-2-yl)-5-oxa-2-azaspiro[3.4]octane] | 0 | > 25 | 0 | > 25 | 117 | 424
Fc1ccc(OC2CCOCC2)c(C2CCN([C@@H]3COC4(C3)CN(c3ncco3)C4)CC2)c1 [Example 4E, (S)-7-(4-(5-fluoro-2-((tetrahydro-2H-pyran-4-yl)oxy)phenyl)piperidin-1-yl)-2-(oxazol-2-yl)-5-oxa-2-azaspiro[3.4]octane] | 0 | > 25 | 0 | > 25 | 75 | 979

Now from value to compound:

Emax [1] [%] | EC50 [1] [µM] | Emax [2] [%] | EC50 [2] [µM] | Emax [3] [%] | EC50 [3] [nM] | Compound
0 | > 25 | 0 | > 25 | 79 | 382 | c1ccc(C2CCN([C@@H]3COC4(C3)CN(c3ncco3)C4)CC2)c(OC2COC2)c1 [Example 4C, (S)-2-(oxazol-2-yl)-7-(4-(2-(oxetan-3-yloxy)phenyl)piperidin-1-yl)-5-oxa-2-azaspiro[3.4]octane]
0 | > 25 | 0 | > 25 | 95 | 741 | Fc1ccc(O[C@@H]2CCOC2)c(C2CCN([C@@H]3COC4(C3)CN(c3ncco3)C4)CC2)c1 [Example 4D, (S)-7-(4-(5-fluoro-2-(((R)-tetrahydrofuran-3-yl)oxy)phenyl)piperidin-1-yl)-2-(oxazol-2-yl)-5-oxa-2-azaspiro[3.4]octane]
0 | > 25 | 0 | > 25 | 90 | 540 | c1ccc(C2CCN([C@@H]3COC4(C3)CN(c3ncco3)C4)CC2)c(O[C@@H]2CCOC2)c1 [Example 4F, (S)-2-(oxazol-2-yl)-7-(4-(2-(((R)-tetrahydrofuran-3-yl)oxy)phenyl)piperidin-1-yl)-5-oxa-2-azaspiro[3.4]octane]
